Results from US9555014B2, “Therapeutic regimens” (Radius Health, Inc., priority 2010, dated 2017).
Counter-ions that a name gives are not always drawn. Like-named read-outs stand apart in the source and are kept apart here.

Assays:
[1] = Phase 2a study: trough and peak plasma drug levels; type: in vivo, human (postmenopausal women); details: for concentration at 8 day / concentration at 15 day / concentration at 29 day: female, human, plasma; for concentration at 29 day: Day 29, ITT
Excerpt: This is a randomized, placebo-controlled, double-blind, parallel-group, Phase 2, multi-center, dose-finding study to evaluate the effects of (R)-6-(2-(ethyl(4-(2-(ethylamino)ethyl)benzyl)amino)-4-methoxyphenyl)-5,6,7,8-tetrahydronaphthalen-2-ol dihydrochloride in the treatment of vasomotor symptoms in postmenopausal women.
A total of 100 eligible patients will be randomized to receive one of 5 blinded treatment regimens. (R)-6-(2-(ethyl(4-(2-(ethylamino)ethyl)benzyl)amino)-4-methoxyphenyl)-5,6,7,8-tetrahydronaphthalen-2-ol dihydrochloride at doses 0, 10, 25, 50 or 100 mg will be dosed for 28-days.
(R)-6-(2-(ethyl(4-(2-(ethylamino)ethyl)benzyl)amino)-4-methoxyphenyl)-5,6,7,8-tetrahydronaphthalen-2-ol dihydrochloride was provided by sponsor in capsule form for oral administration. All doses (0, 10, 25, 50 and 100 mg) were provided as identical presentations. Each patient was provided with 2 containers of 28-capsules each at the start of treatment and took one capsule from each container every day for 28-days. Placebo contained the same excipients as active medication, but without (R)-6-(2-(ethyl(4-(2-(ethylamino)ethyl)benzyl)amino)-4-methoxyphenyl)-5,6,7,8-tetrahydronaphthalen-2-ol dihydrochloride. The patients were instructed to take the capsules orally in the fasted state (morning).
All efficacy endpoints were to be analyzed for the ITT and PP populations, with the exception of the drug levels (analyzed for the ITT population only). Safety endpoints were to be analyzed for the Safety/ITT population.
Values for ranges of steady state trough levels and steady state Cmax can be derived from Tables 4 and 5. Steady state values are the values listed for days 8 and 15. The ranges were derived from the mean number listed in the table plus or minus one standard deviation (the number in parenthesis after each mean value). For example a steady state trough level ranging from 0.11 ng/mL to 0.79 ng/mL is derived from Table 4 by taking the trough level for 10 mg, 0.45 ng/mL, adding 0.34 to get the upper value of 0.79 and subtracting 0.34 to get the lover value of 0.11. Other ranges for steady state trough levels and ranges for Cmax can be similarly derived from the data in Tables 4 and 5.

endometrium = experiment: Preclinical rat models measuring estrogenic agonist effects on the endometrium; type: in vivo
Excerpt: The results of a phase 2a clinical study assessing the effects of the selective estrogen receptor modulator (SERM) (R)-6-(2-(ethyl(4-(2-(ethylamino)ethyl)benzyl)amino)-4-methoxyphenyl)-5,6,7,8-tetrahydronaphthalen-2-ol on women suffering from hot flushes are reported herein.

SMILES: CCNCCc1ccc(CN(CC)c2cc(OC)ccc2[C@@H]2CCc3cc(O)ccc3C2)cc1 [drug, (R)-6-(2-(ethyl(4-(2-(ethylamino)ethyl)benzyl)amino)-4-methoxyphenyl)-5,6,7,8-tetrahydronaphthalen-2-ol dihydrochloride]
- Peak Level of drug ([1]; 10 mg daily PO, Day 1, ITT, mean (SD)): 0.56 (0.34) ng/mL
- Peak Level of drug ([1]; 10 mg daily PO, Day 8, ITT, mean (SD)): 0.92 (0.52) ng/mL
- Peak Level of drug ([1]; 10 mg daily PO, Day 15, ITT, mean (SD)): 0.92 (0.69) ng/mL
- Peak Level of drug ([1]; 25 mg daily PO, Day 1, ITT, mean (SD)): 1.41 (0.63) ng/mL
- Peak Level of drug ([1]; 25 mg daily PO, Day 8, ITT, mean (SD)): 2.53 (0.74) ng/mL
- Peak Level of drug ([1]; 25 mg daily PO, Day 15, ITT, mean (SD)): 2.97 (1.09) ng/mL
- Peak Level of drug ([1]; 50 mg daily PO, Day 1, ITT, mean (SD)): 2.83 (1.72) ng/mL
- Peak Level of drug ([1]; 50 mg daily PO, Day 8, ITT, mean (SD)): 6.36 (2.58) ng/mL
- Peak Level of drug ([1]; 50 mg daily PO, Day 15, ITT, mean (SD)): 6.22 (3.46) ng/mL
- Peak Level of drug ([1]; 100 mg daily PO, Day 1, ITT, mean (SD)): 8.39 (4.04) ng/mL
- Peak Level of drug ([1]; 100 mg daily PO, Day 8, ITT, mean (SD)): 15.47 (7.14) ng/mL
- Peak Level of drug ([1]; 100 mg daily PO, Day 15, ITT, mean (SD)): 12.76 (5.28) ng/mL
- concentration at 8 day ([1]; oral, 10 mg, derived from Table 4 (0.45 ± 0.34, Day 8), read-out: steady state trough level range (mean plus or minus one standard deviation)): 0.11 to 0.79 ng/mL
- concentration at 8 day ([1]; 10 mg daily PO, Day 8, ITT, mean (SD), read-out: Mean Trough Level of Drug): 0.45 ng/mL
- concentration at 15 day ([1]; 10 mg daily PO, Day 15, ITT, mean (SD), read-out: Mean Trough Level of Drug): 0.49 ng/mL
- concentration at 29 day ([1]; 10 mg daily PO, mean (SD), read-out: Mean Trough Level of Drug): 0.34 ng/mL
- concentration at 8 day ([1]; 25 mg daily PO, Day 8, ITT, mean (SD), read-out: Mean Trough Level of Drug): 1.33 ng/mL
- concentration at 15 day ([1]; 25 mg daily PO, Day 15, ITT, mean (SD), read-out: Mean Trough Level of Drug): 1.49 ng/mL
- concentration at 29 day ([1]; 25 mg daily PO, mean (SD), read-out: Mean Trough Level of Drug): 1.18 ng/mL
- concentration at 8 day ([1]; 50 mg daily PO, Day 8, ITT, mean (SD), read-out: Mean Trough Level of Drug): 3.11 ng/mL
- concentration at 15 day ([1]; 50 mg daily PO, Day 15, ITT, mean (SD), read-out: Mean Trough Level of Drug): 3.39 ng/mL
- concentration at 29 day ([1]; 50 mg daily PO, mean (SD), read-out: Mean Trough Level of Drug): 3.23 ng/mL
- concentration at 8 day ([1]; 100 mg daily PO, Day 8, ITT, mean (SD), read-out: Mean Trough Level of Drug): 6.91 ng/mL
- concentration at 15 day ([1]; 100 mg daily PO, Day 15, ITT, mean (SD), read-out: Mean Trough Level of Drug): 6.66 ng/mL
- concentration at 29 day ([1]; 100 mg daily PO, mean (SD), read-out: Mean Trough Level of Drug): 6.03 ng/mL
- estrogen agonist stimulation effects on the endometrium (endometrium): negligible estrogen agonist stimulation effects
